According to ChEMBL document CHEMBL4402590, “Small-Molecule Antagonist Targeting Exportin-1 via Rational Structure-Based Discovery” (J Med Chem, 2020):
Active and inactive are the calls of the source.

How the values were obtained:
Mus musculus [1] = assay: Anti-inflammatory activity against DSS-induced ulcerative colitis C57BL/6J mouse model assessed as restoration of colon length at 10 mg/kg, po administered for 7 days and measured on day 7; assay type: functional, organism-based
Exportin-1 [2] = molecular target: T1, Exportin-1 (Homo sapiens, UniProt O14980); assay: Reversible inhibition of CRM1 in human 293T cells assessed as increase in translocation of NES-GFP to […] at 4 uM incubated for 2 hrs by confocal laser scanning microscopy; assay type: cell-based
Mus musculus [3] = assay: Anti-inflammatory activity against DSS-induced ulcerative colitis C57BL/6J mouse model assessed as reduction in impairment of inflammatory response genes at 30 mg/kg, po administered for 7 days and measured on day 7 by proteomic analysis; assay type: functional, organism-based
[4] = molecular target: Voltage-gated inwardly rectifying potassium channel KCNH2 (Homo sapiens, UniProt Q12809); assay: Inhibition of human ERG expressed in human HEK293 cells by whole cell patch clamp assay; assay type: cell-based
Mus musculus [5] = assay: Anti-inflammatory activity against DSS-induced ulcerative colitis C57BL/6J mouse model assessed as reduction in body weight loss at 3 and 30 mg/kg, po administered for 7 days and measured daily; assay type: functional, organism-based
Mus musculus [6] = assay: Anti-inflammatory activity against DSS-induced ulcerative colitis C57BL/6J mouse model assessed as reduction in impairment of wound healing genes at 30 mg/kg, po administered for 7 days and measured on day 7 by proteomic analysis; assay type: functional, organism-based
Mus musculus [7] = assay: Anti-inflammatory activity against DSS-induced ulcerative colitis C57BL/6J mouse model assessed as reduction in colon shortening at 3 and 30 mg/kg, po administered for 7 days and measured daily; assay type: functional, organism-based
Mus musculus [8] = assay: Anti-inflammatory activity against DSS-induced ulcerative colitis C57BL/6J mouse model assessed as reduction in IL-6 production at 10 mg/kg, po administered for 7 days and measured on day 7 by ELISA; assay type: functional, organism-based
Homo sapiens = species on record: Homo sapiens; assay: Binding affinity to recombinant His-tagged IkBalpha (unknown origin) by SPR analysis
HCT-15 = assay: Antiproliferative activity against CRM1 siRNA […] human HCT15 cells assessed as reduction in cell viability incubated for 24 hrs; assay type: functional, cell-based; conditions: HCT-15, 24 h
Mus musculus [9] = assay: Anti-inflammatory activity against DSS-induced ulcerative colitis C57BL/6J mouse model assessed as reduction in impairment of epithelial barrier genes at 30 mg/kg, po administered for 7 days and measured on day 7 by proteomic analysis; assay type: functional, organism-based
[10] = Toxicity in C57BL/6 mouse assessed as effect on spleen at 300 to 600 mg/kg, po administered for 7 days and measured on day 14; assay type: organism-based; conditions: in vivo, 168 h
[11] = Acute toxicity in C57BL/6 mouse assessed as weight loss at 300 to 600 mg/kg, po administered for 7 days and measured on day 7; assay type: organism-based; conditions: in vivo, 168 h
[12] = Permeability in human Caco2 cells at 10 uM incubated for 4 hrs by LC-MS/MS analysis; assay type: ADME, cell-based; conditions: caco-2, 4 h
Mus musculus [13] = assay: Anti-inflammatory activity against DSS-induced ulcerative colitis C57BL/6J mouse model assessed as reduction in diarrhea at 3 and 30 mg/kg, po administered for 7 days and measured daily; assay type: functional, organism-based
Mus musculus [14] = assay: Anti-inflammatory activity against DSS-induced ulcerative colitis C57BL/6J mouse model assessed as reduction in colon swelling at 3 and 30 mg/kg, po administered for 7 days and measured on day 7 by […] and eosin staining based microscopic analysis; assay type: functional, organism-based
Mus musculus [15] = assay: In vivo inhibition of NFkappaB in C57BL/6J mouse DSS-induced ulcerative colitis model assessed as restoration of occludin expression at 10 and 30 mg/kg, po administered for 7 days and measured on day 7 by Western blot analysis; assay type: functional, organism-based
Mus musculus [16] = assay: In vivo inhibition of NFkappaB in C57BL/6J mouse DSS-induced ulcerative colitis model assessed as downregulation of MRP8 expression at 10 and 30 mg/kg, po administered for 7 days and measured on day 7 by Western blot analysis; assay type: functional, organism-based
Mus musculus [17] = assay: Anti-inflammatory activity against DSS-induced ulcerative colitis C57BL/6J mouse model assessed as reduction in TNFalpha production at 10 mg/kg, po administered for 7 days and measured on day 7 by ELISA; assay type: functional, organism-based
Mus musculus [18] = assay: Anti-inflammatory activity against DSS-induced ulcerative colitis C57BL/6J mouse model assessed as reduction in impairment of host defense genes at 30 mg/kg, po administered for 7 days and measured on day 7 by proteomic analysis; assay type: functional, organism-based
Mus musculus [19] = assay: Anti-inflammatory activity against DSS-induced ulcerative colitis C57BL/6J mouse model assessed as reduction in COX-2 production at 10 mg/kg, po administered for 7 days and measured on day 7 by ELISA; assay type: functional, organism-based
Mus musculus [20] = assay: Anti-inflammatory activity against DSS-induced ulcerative colitis C57BL/6J mouse model assessed as reduction in colon ulceration at 10 mg/kg, po administered for 7 days and measured on day 7; assay type: functional, organism-based
Mus musculus [21] = assay: Anti-inflammatory activity against DSS-induced ulcerative colitis C57BL/6J mouse model assessed as reduction in colitis orally administered for 7 days and measured on day 7 by […] and eosin staining based microscopic analysis; assay type: functional, organism-based
Mus musculus [22] = assay: In vivo inhibition of NFkappaB in C57BL/6J mouse DSS-induced ulcerative colitis model assessed as increase in accumulation of IkBalpha in nucleus at 400 nM, po by confocal microscopy; assay type: functional, organism-based
[23] = molecular target: Kelch-like ECH-associated protein 1 (Homo sapiens) (UniProt Q14145); assay: Binding affinity to recombinant His-tagged Keap1 (unknown origin) by SPR analysis
Mus musculus [24] = assay: Anti-inflammatory activity against DSS-induced ulcerative colitis C57BL/6J mouse model assessed as restoration of damaged colon mucosal layer at 10 mg/kg, po administered for 7 days and measured on day 7 by ELISA; assay type: functional, organism-based
Mus musculus [25] = assay: Anti-inflammatory activity against DSS-induced ulcerative colitis C57BL/6J mouse model assessed as reduction in colon swelling at 10 mg/kg, po administered for 7 days and measured on day 7; assay type: functional, organism-based
[26] = Stability of compound in artificial intestinal juice assessed as half life; assay type: ADME
Exportin-1 [27] = molecular target: T1, Exportin-1; assay: Binding affinity to recombinant His-tagged CRM1 (unknown origin) by SPR analysis
Mus musculus [28] = assay: In vivo inhibition of NFkappaB in C57BL/6J mouse DSS-induced ulcerative colitis model assessed as increase in accumulation of NRF2 in nucleus at 400 nM, po by confocal microscopy; assay type: functional, organism-based
[29] = Cytotoxicity activity against human SNK6 cells assessed as GSH:GSSG ratio at 1 uM incubated for 48 hrs by GSH and GSSG assay kit method; assay type: cell-based
Mus musculus [30] = assay: In vivo inhibition of NFkappaB in C57BL/6J mouse DSS-induced ulcerative colitis model assessed as downregulation of MRP14 expression at 10 and 30 mg/kg, po administered for 7 days and measured on day 7 by Western blot analysis; assay type: functional, organism-based
Mus musculus [31] = assay: In vivo inhibition of NFkappaB in C57BL/6J mouse DSS-induced ulcerative colitis model assessed as increase in Nrf2 expression at 10 and 30 mg/kg, po administered for 7 days and measured on day 7 by Western blot analysis; assay type: functional, organism-based
[32] = Acute toxicity in C57BL/6 mouse assessed as sickness indication at 300 to 600 mg/kg, po administered for 7 days and measured on day 7; assay type: organism-based; conditions: in vivo, 168 h
Mus musculus [33] = assay: Anti-inflammatory activity against DSS-induced ulcerative colitis C57BL/6J mouse model assessed as reduction in IL-23 production at 10 mg/kg, po administered for 7 days and measured on day 7 by ELISA; assay type: functional, organism-based
Mus musculus [34] = assay: Anti-inflammatory activity against DSS-induced ulcerative colitis C57BL/6J mouse model assessed as reduction in impairment of T-cell receptor signalling genes at 30 mg/kg, po administered for 7 days and measured on day 7 by proteomic analysis; assay type: functional, organism-based
[35] = Toxicity in C57BL/6 mouse assessed as effect on colon at 300 to 600 mg/kg, po administered for 7 days and measured on day 14; assay type: organism-based; conditions: in vivo, 168 h
Mus musculus [36] = assay: Anti-inflammatory activity against DSS-induced ulcerative colitis C57BL/6J mouse model assessed as reduction in colon inflammation at 10 mg/kg, po administered for 7 days and measured on day 7; assay type: functional, organism-based
[37] = Acute toxicity in C57BL/6 mouse assessed as lethargy at 300 to 600 mg/kg, po administered for 7 days and measured on day 7; assay type: organism-based; conditions: in vivo, 168 h
Mus musculus [38] = assay: Anti-inflammatory activity against DSS-induced ulcerative colitis C57BL/6J mouse model assessed as reduction in impairment of NF-kappaB signalling genes at 30 mg/kg, po administered for 7 days and measured on day 7 by proteomic analysis; assay type: functional, organism-based
Mus musculus [39] = assay: Anti-inflammatory activity against DSS-induced ulcerative colitis C57BL/6J mouse model assessed as reduction in impairment of cell-cell adhesion genes at 30 mg/kg, po administered for 7 days and measured on day 7 by proteomic analysis; assay type: functional, organism-based
Mus musculus [40] = assay: Anti-inflammatory activity against DSS-induced ulcerative colitis C57BL/6J mouse model assessed as reduction in body weight loss at 10 mg/kg, po administered for 7 days and measured daily; assay type: functional, organism-based
Mus musculus [41] = assay: Anti-inflammatory activity against DSS-induced ulcerative colitis C57BL/6J mouse model assessed as re-epithelialization of colon at 3 and 30 mg/kg, po administered for 7 days and measured on day 7 by […] and eosin staining based microscopic analysis; assay type: functional, organism-based
Mus musculus [42] = assay: Anti-inflammatory activity against DSS-induced ulcerative colitis C57BL/6J mouse model assessed as reduction in IL-1beta production at 10 mg/kg, po administered for 7 days and measured on day 7 by ELISA; assay type: functional, organism-based
Mus musculus [43] = assay: In vivo inhibition of NFkappaB in C57BL/6J mouse DSS-induced ulcerative colitis model assessed as reduction in NFkappaB p65 expression at 10 and 30 mg/kg, po administered for 7 days and measured on day 7 by Western blot analysis; assay type: functional, organism-based
Mus musculus [44] = assay: In vivo inhibition of NFkappaB in C57BL/6J mouse DSS-induced ulcerative colitis model assessed as increase in HO1 expression at 10 and 30 mg/kg, po administered for 7 days and measured on day 7 by Western blot analysis; assay type: functional, organism-based
Mus musculus [45] = assay: Anti-inflammatory activity against DSS-induced ulcerative colitis C57BL/6J mouse model assessed as reduction in colon inflammation at 3 and 30 mg/kg, po administered for 7 days and measured on day 7 by […] and eosin staining based microscopic analysis; assay type: functional, organism-based
Mus musculus [46] = assay: Anti-inflammatory activity against DSS-induced ulcerative colitis C57BL/6J mouse model assessed as reduction in impairment of immune response genes at 30 mg/kg, po administered for 7 days and measured on day 7 by proteomic analysis; assay type: functional, organism-based
Mus musculus [47] = assay: Anti-inflammatory activity against DSS-induced ulcerative colitis C57BL/6J mouse model assessed as preservation of colon mucosal architecture at 3 and 30 mg/kg, po administered for 7 days and measured on day 7 by […] and eosin staining based microscopic analysis; assay type: functional, organism-based
[48] = Stability of compound in artificial gastric juice assessed as half life; assay type: ADME
Mus musculus [49] = assay: Anti-inflammatory activity against DSS-induced ulcerative colitis C57BL/6J mouse model assessed as reduction in diarrhea at 10 mg/kg, po administered for 7 days and measured daily; assay type: functional, organism-based
Mus musculus [50] = assay: In vivo inhibition of NFkappaB in C57BL/6J mouse DSS-induced ulcerative colitis model assessed as reduction in NQO1 expression at 10 and 30 mg/kg, po administered for 7 days and measured on day 7 by Western blot analysis; assay type: functional, organism-based
Mus musculus [51] = assay: Anti-inflammatory activity against DSS-induced ulcerative colitis C57BL/6J mouse model assessed as reduction in colon ulceration at 3 and 30 mg/kg, po administered for 7 days and measured on day 7 by […] and eosin staining based microscopic analysis; assay type: functional, organism-based

T1 sequence (O14980 whole entry): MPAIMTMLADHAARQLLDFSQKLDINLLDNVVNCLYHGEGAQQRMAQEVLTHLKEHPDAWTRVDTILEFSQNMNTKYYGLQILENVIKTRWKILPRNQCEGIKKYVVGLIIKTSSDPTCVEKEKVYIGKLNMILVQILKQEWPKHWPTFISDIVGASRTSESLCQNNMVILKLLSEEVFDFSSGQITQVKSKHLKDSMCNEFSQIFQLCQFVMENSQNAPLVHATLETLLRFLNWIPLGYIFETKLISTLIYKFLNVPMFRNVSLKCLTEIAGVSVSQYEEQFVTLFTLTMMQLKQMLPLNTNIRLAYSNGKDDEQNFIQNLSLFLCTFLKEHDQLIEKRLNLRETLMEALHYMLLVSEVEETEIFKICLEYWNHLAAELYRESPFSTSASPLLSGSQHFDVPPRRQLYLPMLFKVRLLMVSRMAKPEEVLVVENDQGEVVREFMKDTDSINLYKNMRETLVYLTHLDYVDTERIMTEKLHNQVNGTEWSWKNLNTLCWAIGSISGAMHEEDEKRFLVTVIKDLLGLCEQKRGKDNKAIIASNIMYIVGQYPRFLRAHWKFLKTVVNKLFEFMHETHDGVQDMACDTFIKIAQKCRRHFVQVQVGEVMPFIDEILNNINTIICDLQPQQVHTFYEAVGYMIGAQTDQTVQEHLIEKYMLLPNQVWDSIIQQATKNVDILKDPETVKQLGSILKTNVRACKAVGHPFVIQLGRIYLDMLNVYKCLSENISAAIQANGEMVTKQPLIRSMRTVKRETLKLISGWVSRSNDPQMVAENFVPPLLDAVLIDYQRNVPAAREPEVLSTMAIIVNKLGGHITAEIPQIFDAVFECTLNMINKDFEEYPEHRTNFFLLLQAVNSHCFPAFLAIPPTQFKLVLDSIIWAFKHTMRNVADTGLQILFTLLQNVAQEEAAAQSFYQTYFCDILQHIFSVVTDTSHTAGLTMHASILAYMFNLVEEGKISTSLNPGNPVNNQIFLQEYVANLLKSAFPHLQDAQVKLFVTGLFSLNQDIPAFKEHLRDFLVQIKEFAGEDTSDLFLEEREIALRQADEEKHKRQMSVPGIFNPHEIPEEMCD
Kelch-like ECH-associated protein 1 (Homo sapiens), sequence (Q14145 whole entry): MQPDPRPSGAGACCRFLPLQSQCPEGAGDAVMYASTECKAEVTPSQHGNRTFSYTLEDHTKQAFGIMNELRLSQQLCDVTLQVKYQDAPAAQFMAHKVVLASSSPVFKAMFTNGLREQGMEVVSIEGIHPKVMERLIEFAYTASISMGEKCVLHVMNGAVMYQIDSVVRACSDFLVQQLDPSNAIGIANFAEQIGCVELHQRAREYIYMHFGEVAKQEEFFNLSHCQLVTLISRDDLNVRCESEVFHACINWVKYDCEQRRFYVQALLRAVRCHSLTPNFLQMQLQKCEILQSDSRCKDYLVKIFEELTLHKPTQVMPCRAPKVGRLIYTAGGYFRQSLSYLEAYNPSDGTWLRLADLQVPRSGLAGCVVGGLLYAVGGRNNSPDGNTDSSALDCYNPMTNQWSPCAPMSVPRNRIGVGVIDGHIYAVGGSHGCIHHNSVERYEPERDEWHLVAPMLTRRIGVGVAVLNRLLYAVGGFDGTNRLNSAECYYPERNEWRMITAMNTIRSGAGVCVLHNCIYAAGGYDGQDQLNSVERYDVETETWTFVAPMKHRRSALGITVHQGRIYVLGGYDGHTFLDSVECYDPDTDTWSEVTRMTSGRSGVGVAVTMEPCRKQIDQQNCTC
Voltage-gated inwardly rectifying potassium channel KCNH2, sequence (Q12809 whole entry): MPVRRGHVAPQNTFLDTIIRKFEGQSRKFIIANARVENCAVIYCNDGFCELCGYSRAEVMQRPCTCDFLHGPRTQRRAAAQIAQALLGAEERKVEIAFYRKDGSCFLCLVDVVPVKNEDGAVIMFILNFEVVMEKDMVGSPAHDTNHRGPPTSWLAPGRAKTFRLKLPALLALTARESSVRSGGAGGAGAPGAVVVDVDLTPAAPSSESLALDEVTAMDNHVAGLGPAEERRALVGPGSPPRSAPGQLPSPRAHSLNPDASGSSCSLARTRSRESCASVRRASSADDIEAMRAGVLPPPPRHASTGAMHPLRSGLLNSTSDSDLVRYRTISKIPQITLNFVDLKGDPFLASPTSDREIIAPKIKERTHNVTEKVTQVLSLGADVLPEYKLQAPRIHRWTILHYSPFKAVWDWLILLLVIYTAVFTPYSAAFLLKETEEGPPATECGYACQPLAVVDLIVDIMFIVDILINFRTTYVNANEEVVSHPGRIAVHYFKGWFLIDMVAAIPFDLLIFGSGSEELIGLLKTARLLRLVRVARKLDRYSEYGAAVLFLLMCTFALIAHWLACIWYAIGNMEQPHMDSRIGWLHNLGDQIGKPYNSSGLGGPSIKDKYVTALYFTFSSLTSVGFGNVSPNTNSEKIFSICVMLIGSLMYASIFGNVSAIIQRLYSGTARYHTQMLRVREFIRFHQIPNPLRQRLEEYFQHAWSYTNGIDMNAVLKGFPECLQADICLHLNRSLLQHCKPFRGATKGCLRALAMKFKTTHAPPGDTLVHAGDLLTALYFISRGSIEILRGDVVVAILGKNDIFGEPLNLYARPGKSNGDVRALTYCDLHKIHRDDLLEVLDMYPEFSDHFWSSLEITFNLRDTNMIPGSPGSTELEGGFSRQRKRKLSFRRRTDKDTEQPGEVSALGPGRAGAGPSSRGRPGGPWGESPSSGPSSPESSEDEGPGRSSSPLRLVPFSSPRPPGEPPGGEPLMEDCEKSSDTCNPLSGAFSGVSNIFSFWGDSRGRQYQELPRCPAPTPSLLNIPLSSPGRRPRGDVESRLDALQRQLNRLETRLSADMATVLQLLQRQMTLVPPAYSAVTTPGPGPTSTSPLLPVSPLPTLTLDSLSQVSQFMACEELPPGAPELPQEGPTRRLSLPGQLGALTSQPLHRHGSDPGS

[O-][S@@+](/C=C/CCN=C=S)c1cc(C(F)(F)F)cc(C(F)(F)F)c1
14.7 µM: IC50 (HCT-15)
Non-Toxic: Activity [10] | Activity [11] | Activity [29] | Activity [32] | Activity [35] | Activity [37]
Permeable: permeability [12]
0.0269 µM: Kd (Exportin-1 [27])
> 30 µM: IC50 [4]
100%: inhibition (Exportin-1 [2])
8 h: half-life [26]
inactive: Activity (Homo sapiens) | Activity [23]
24 h: half-life [48]
active: Activity (Mus musculus [1]) | Activity (Mus musculus [3]) | Activity (Mus musculus [5]) | Activity (Mus musculus [6]) | Activity (Mus musculus [7]) | Activity (Mus musculus [8]) | Activity (Mus musculus [9]) | Activity (Mus musculus [13]) | Activity (Mus musculus [14]) | inhibition (Mus musculus [15]) | inhibition (Mus musculus [16]) | Activity (Mus musculus [17]) | Activity (Mus musculus [18]) | Activity (Mus musculus [19]) | Activity (Mus musculus [20]) | Activity (Mus musculus [21]) Dose-dependent effect | inhibition (Mus musculus [22]) | Activity (Mus musculus [24]) | Activity (Mus musculus [25]) | inhibition (Mus musculus [28]) | inhibition (Mus musculus [30]) | inhibition (Mus musculus [31]) | Activity (Mus musculus [33]) | Activity (Mus musculus [34]) | Activity (Mus musculus [36]) | Activity (Mus musculus [38]) | Activity (Mus musculus [39]) | Activity (Mus musculus [40]) | Activity (Mus musculus [41]) | Activity (Mus musculus [42]) | inhibition (Mus musculus [43]) | inhibition (Mus musculus [44]) | Activity (Mus musculus [45]) | Activity (Mus musculus [46]) | Activity (Mus musculus [47]) | Activity (Mus musculus [49]) | inhibition (Mus musculus [50]) | Activity (Mus musculus [51])
